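96-well plates; 48 h exposure; 5 concentrations. Endpoints by linear interpolation between flanking doses. Not reached: highest tested concentration assigned. TGI: total growth inhibition.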
How the values were obtained:
Assay in all cases: NCI tumour cell line growth inhibition, 48 h
A498 renal = test system: A498 renal
A549 NSCLC = test system: A549 NSCLC
CAKI-1 renal = test system: CAKI-1 renal
CCRF-CEM leukemia = test system: CCRF-CEM leukemia
COLO 205 colon = test system: COLO 205 colon
DLD-1 colon = test system: DLD-1 colon
DMS 114 small cell lung = test system: DMS 114 small cell lung
DMS 273 small cell lung = test system: DMS 273 small cell lung
EKVX NSCLC = test system: EKVX NSCLC
HCC-2998 colon = test system: HCC-2998 colon
HCT-116 colon = test system: HCT-116 colon
HCT-15 colon = test system: HCT-15 colon
HL-60(TB) leukemia = test system: HL-60(TB) leukemia
HOP-18 NSCLC = test system: HOP-18 NSCLC
HOP-62 NSCLC = test system: HOP-62 NSCLC
HOP-92 NSCLC = test system: HOP-92 NSCLC
HT29 colon = test system: HT29 colon
IGROV1 ovarian = test system: IGROV1 ovarian
K-562 leukemia = test system: K-562 leukemia
KM12 colon = test system: KM12 colon
KM20L2 colon = test system: KM20L2 colon
LOX IMVI melanoma = test system: LOX IMVI melanoma
M19-MEL melanoma = test system: M19-MEL melanoma
MALME-3M melanoma = test system: MALME-3M melanoma
MCF7 breast = test system: MCF7 breast
MOLT-4 leukemia = test system: MOLT-4 leukemia
NCI-H226 lung = test system: NCI-H226 lung
NCI-H23 lung = test system: NCI-H23 lung
NCI-H460 lung = test system: NCI-H460 lung
NCI-H522 lung = test system: NCI-H522 lung
NCI/ADR-RES ovarian = test system: NCI/ADR-RES ovarian
OVCAR-3 ovarian = test system: OVCAR-3 ovarian
OVCAR-4 ovarian = test system: OVCAR-4 ovarian
OVCAR-5 ovarian = test system: OVCAR-5 ovarian
OVCAR-8 ovarian = test system: OVCAR-8 ovarian
P388 leukemia = test system: P388 leukemia
P388/ADR leukemia = test system: P388/ADR leukemia
RPMI-8226 leukemia = test system: RPMI-8226 leukemia
RXF 393 renal = test system: RXF 393 renal
SF-268 CNS = test system: SF-268 CNS
SF-295 CNS = test system: SF-295 CNS
SF-539 CNS = test system: SF-539 CNS
SK-MEL-2 melanoma = test system: SK-MEL-2 melanoma
SK-MEL-28 melanoma = test system: SK-MEL-28 melanoma
SK-MEL-5 melanoma = test system: SK-MEL-5 melanoma
SK-OV-3 ovarian = test system: SK-OV-3 ovarian
SN12C renal = test system: SN12C renal
SN12K1 renal = test system: SN12K1 renal
SNB-19 CNS = test system: SNB-19 CNS
SNB-75 CNS = test system: SNB-75 CNS
SNB-78 CNS = test system: SNB-78 CNS
SW-620 colon = test system: SW-620 colon
U251 CNS = test system: U251 CNS
UACC-257 melanoma = test system: UACC-257 melanoma
UACC-62 melanoma = test system: UACC-62 melanoma
UO-31 renal = test system: UO-31 renal
XF 498 CNS = test system: XF 498 CNS

O=C1NC(c2cccc3ccccc23)Nc2ccc(O)cc21 (stereo not drawn)
TGI (A498 renal): 75.3 µM
TGI (A549 NSCLC): > 139 µM
TGI (CAKI-1 renal): > 144 µM
TGI (CCRF-CEM leukemia): 111 µM
TGI (COLO 205 colon): 67.4 µM
TGI (DLD-1 colon): 134 µM
TGI (DMS 114 small cell lung): 67.1 µM
TGI (DMS 273 small cell lung): 64.5 µM
TGI (EKVX NSCLC): 128 µM
TGI (HCC-2998 colon): 88.5 µM
TGI (HCT-116 colon): 122 µM
TGI (HCT-15 colon): 78.3 µM
TGI (HL-60(TB) leukemia): 35 µM
TGI (HOP-18 NSCLC): 131 µM
TGI (HOP-62 NSCLC): 121 µM
TGI (HOP-92 NSCLC): 98.9 µM
TGI (HT29 colon): 121 µM
TGI (IGROV1 ovarian): 95.7 µM
TGI (K-562 leukemia): > 94.6 µM
TGI (KM12 colon): 83.9 µM
TGI (KM20L2 colon): 113 µM
TGI (LOX IMVI melanoma): > 75.7 µM
TGI (M19-MEL melanoma): 127 µM
TGI (MALME-3M melanoma): 69.5 µM
TGI (MCF7 breast): 102 µM
TGI (MOLT-4 leukemia): 75.5 µM
TGI (NCI-H226 lung): 60 µM
TGI (NCI-H23 lung): > 132 µM
TGI (NCI-H460 lung): 69.5 µM
TGI (NCI-H522 lung): 92.3 µM
TGI (NCI/ADR-RES ovarian): 94.2 µM
TGI (OVCAR-3 ovarian): 58.5 µM
TGI (OVCAR-4 ovarian): > 150 µM
TGI (OVCAR-5 ovarian): 101 µM
TGI (OVCAR-8 ovarian): 111 µM
TGI (P388 leukemia): 50.6 µM
TGI (P388/ADR leukemia): 83.6 µM
TGI (RPMI-8226 leukemia): 82.5 µM
TGI (RXF 393 renal): 91.9 µM
TGI (SF-268 CNS): > 150 µM
TGI (SF-295 CNS): 104 µM
TGI (SF-539 CNS): 91.6 µM
TGI (SK-MEL-2 melanoma): 57.3 µM
TGI (SK-MEL-28 melanoma): > 150 µM
TGI (SK-MEL-5 melanoma): 80.8 µM
TGI (SK-OV-3 ovarian): 115 µM
TGI (SN12C renal): 133 µM
TGI (SN12K1 renal): 112 µM
TGI (SNB-19 CNS): 150 µM
TGI (SNB-75 CNS): 106 µM
TGI (SNB-78 CNS): > 150 µM
TGI (SW-620 colon): > 127 µM
TGI (U251 CNS): > 141 µM
TGI (UACC-257 melanoma): > 84.4 µM
TGI (UACC-62 melanoma): 78.5 µM
TGI (UO-31 renal): 78.5 µM
TGI (XF 498 CNS): 59.2 µM

CCCCc1[nH]ccc2c(C)c3nc4ccccc4c3cc12
TGI (A498 renal): 13.4 µM
TGI (A549 NSCLC): 14.1 µM
TGI (CAKI-1 renal): 6.33 µM
TGI (CCRF-CEM leukemia): 10.6 µM
TGI (COLO 205 colon): 3.39 µM
TGI (DLD-1 colon): 13.3 µM
TGI (DMS 114 small cell lung): 4.14 µM
TGI (DMS 273 small cell lung): 2.4 µM
TGI (EKVX NSCLC): 13.6 µM
TGI (HCC-2998 colon): 8.19 µM
TGI (HCT-116 colon): 4.76 µM
TGI (HCT-15 colon): 8.49 µM
TGI (HL-60(TB) leukemia): 3.45 µM
TGI (HOP-18 NSCLC): 6.83 µM
TGI (HOP-62 NSCLC): 14.5 µM
TGI (HOP-92 NSCLC): 12.4 µM
TGI (HT29 colon): 8.85 µM
TGI (IGROV1 ovarian): 16.9 µM
TGI (K-562 leukemia): 5.98 µM
TGI (KM12 colon): 12.7 µM
TGI (KM20L2 colon): 10.8 µM
TGI (LOX IMVI melanoma): 4.3 µM
TGI (M19-MEL melanoma): 10.9 µM
TGI (MALME-3M melanoma): 14.5 µM
TGI (MCF7 breast): 10.8 µM
TGI (MOLT-4 leukemia): 4.72 µM
TGI (NCI-H226 lung): 24.6 µM
TGI (NCI-H23 lung): 16 µM
TGI (NCI-H460 lung): 5.03 µM
TGI (NCI-H522 lung): 6.75 µM
TGI (NCI/ADR-RES ovarian): 5.87 µM
TGI (OVCAR-3 ovarian): 10.8 µM
TGI (OVCAR-4 ovarian): 13.5 µM
TGI (OVCAR-5 ovarian): 17.2 µM
TGI (OVCAR-8 ovarian): 9.49 µM
TGI (P388 leukemia): 4.13 µM
TGI (P388/ADR leukemia): 7.29 µM
TGI (RPMI-8226 leukemia): 6.77 µM
TGI (RXF 393 renal): 7.61 µM
TGI (SF-268 CNS): 21.6 µM
TGI (SF-295 CNS): 8.41 µM
TGI (SF-539 CNS): 7.45 µM
TGI (SK-MEL-2 melanoma): 11.4 µM
TGI (SK-MEL-28 melanoma): 11.8 µM
TGI (SK-MEL-5 melanoma): 6.52 µM
TGI (SK-OV-3 ovarian): 16.8 µM
TGI (SN12C renal): 19.4 µM
TGI (SN12K1 renal): 5.75 µM
TGI (SNB-19 CNS): 11.6 µM
TGI (SNB-75 CNS): 15.8 µM
TGI (SNB-78 CNS): 21.3 µM
TGI (SW-620 colon): 6.78 µM
TGI (U251 CNS): 12.8 µM
TGI (UACC-257 melanoma): 5.13 µM
TGI (UACC-62 melanoma): 8.75 µM
TGI (UO-31 renal): 10.9 µM
